This test concerns bacterial strain LF82 binding to the glycoprotein BSA-(Mannose)3. The test is described as follows: Bacterial Binding Assay (BBA). Format: cell-based, Escherichia coli. The settings on record: read-out: Bacterial Binding Assay IC50. An excerpt: The purpose of the Bacterial Binding Assay (BBA) is to determine the inhibition activity of selective FimH antagonists on the bacterial strain LF82 binding to the glycoprotein BSA-(Mannose)3.
Below is a list of the Materials used to run the BBA are described below. • 1. LB broth: Supplier: Gibco, #10855 • 2. D-PBS: Supplier: Wisent, #311-425-CL • 3. LB agar plates • 4. 96-well black plate (high binding): Supplier: Costar, #3925 • 5. TopSeal™-A adhesive sealing films; Supplier PerkinElmer, #6005185 • 6. Carbonate-bicarbonate buffer pH 9.6 tablets, Supplier: Medicago, #09-8922-24 • 7. Water, Supplier: Gibco, #15230-162 • 8. Bovine serum albumin (BSA): Supplier: Sigma, #A-7888 • 9. (Man)-3-BSA (α1-3, α1-6 Mannotriose-BSA, 1 mg), V-Labs, #NGP1336, lot#HGDX37-169-1 • 10. Tween 20: Supplier: Sigma, #P9416 • 11. Bright-Glo Luciferase Assay System: Supplier: Promega, #E2610 • 12. LF82/Luciferase strain: Invasive ability of an Escherichia coli strain isolated from the ileal mucosa of a patient with Crohn's disease. Boudeau J, Glasser A L, Masseret E, Joly B, Darfeuille-Michaud A, Infect Immun. 1999, 67(9), 4499-509
Solutions and buffers used to run the BBA are described below. • 1. 0.04M carbonate-bicarbonate buffer (coating buffer) • 2. […] 1 mg of (Man)-3-BSA in 25 mL of water. • 3. 4000 ng/mL BSA • 4. 40 ng/mL BSA • 5. 1 μg/mL BSA-(Man)3: 150 μL of 40 ng/mL BSA-(Man)3+5.85 mL of 40 ng/mL BSA • 6. 0.5 μg/mL BSA-(Man)3 in 0.02M carbonate-bicarbonate buffer. • 7. 20 ng/mL BSA in 0.02M carbonate-bicarbonate buffer • 8. Blocking buffer (2% BSA/DPBS): 1 g of BSA in 50 mL D-PBS • 9. 2× binding buffer (0.2% BSA/D-PBS): 5 mL of blocking buffer+45 mL D-PBS. • 10. Washing buffer (D-PBS/0.01% Tween 20): 10 μL of Tween 20 in 100 mL D-PBS. • 11. 1× Bright-Glo Luciferase substrate:Dilute 1:1 the Bright-Glo Luciferase Assay System with D-PBS The experimental protocol to run the BBA is described below.
Overnight culture of LF82/Luciferase strain: Into two Falcon 50 mL tubes, add 20 mL of LB+20 μL of 50 mg/mL Kanamycin and inoculate with a loop from glycerol stock of the LF82/Luciferase strain. Incubate overnight at 37° C. with no shaking.
Glycoprotein coating of 96-well plates: Add 100 μL/well of 0.5-2 μg/mL BSA-(Man)3. 20 μg/mL BSA is used as the control background. Seal plate using an adhesive sealing film and incubate overnight at room temperature. Wash the 96-well plate three times with 150 μL/well of D-PBS, add 170 μL/well of blocking solution and incubate 45 min (minimum) at room temperature.
Preparation of bacterial suspension: Mix the two cultures tubes (40 mL) and perform a 1:10 dilution in LB (900 μl LB+100 μl culture. Measure optical density (OD) of the bacterial cultures. OD1 ˜5×10^8 cells/mL. Centrifuge LF82 culture for 20 min at 3500 rpm at room temperature. Re-suspend bacterial pellet in D-PBS and centrifuge again for 20 min at 3500 rpm. Re-suspend bacterial pellet in D-PBS to obtain a bacterial concentration of 2×10^9 bacteria/mL. Dilute 1/10 in D-PBS to obtain a final bacterial concentration of 2×10^8 bacteria/mL (=107 bacteria/50 μL). Perform 1/10 serial dilutions in LB of each bacterial suspension, plate 10 μL of dilutions on LB agar plates (final dilutions of 10^−7) and incubate overnight at 37° C. and count CFUs to determine the actual bacteria density in the assay.
Bacterial binding assay: Add 147 μL 2× binding buffer to compound plate (containing 3 μL of compound). After blocking step is performed (at least 45 min), wash plates three times with 200 μL/well of D-PBS. With a 100 μL multichannel manual pipettor, add 50 μL/well of compound diluted in 2× binding buffer. With a 100 μL multichannel manual pipettor, add 50 μL/well of bacterial suspension. Agitate at slow speed for 1 min and incubate 40-75 min at room temperature. Wash 5 times with 150 μL/well of washing buffer and then once with D-PBS. Add 100 μL/well of 1× Bright-Glo Luciferase substrate. […]

Consider `Cc1cc(-c2cccc(C(=O)N[C@@H](CO)C(=O)O)c2)ccc1O[C@H]1O[C@H](CO)[C@@H](O)[C@H](O)[C@]1(C)O` [Compound 69], for which the half-maximal inhibitory concentration (IC50) was 0.03 ± 0.012 µM.

In the case of `Cc1cc(-c2cccc(C(=O)N3CCCC3)c2)ccc1O[C@H]1O[C@H](CO)[C@@H](O)[C@H](O)[C@]1(C)O` [Compound 70], the half-maximal inhibitory concentration (IC50) stood at 0.03 ± 0.001 µM.

Regarding `Cc1cc(-c2cccc(C(=O)N(CCO)C(CO)(CO)CO)c2)ccc1O[C@H]1O[C@H](CO)[C@@H](O)[C@H](O)[C@]1(C)O` [Compound 71], the concentration for half-maximal inhibition (IC50) was determined as 0.008 ± 0.002 µM.

As to `Cc1cc(-c2cccc(C(=O)N[C@@H](CO)[C@@H](C)O)c2)ccc1O[C@H]1O[C@H](CO)[C@@H](O)[C@H](O)[C@]1(C)O` [Compound 72], the IC50 came out at 0.036 ± 0.009 µM.

Turning to `CNC(=O)c1cc(F)cc(-c2ccc(O[C@H]3O[C@H](CO)[C@@H](O)[C@H](O)[C@]3(C)O)c(C)c2)c1` [Compound 73], the IC50 was 0.016 ± 0.005 µM.

On to `Cc1cc(-c2ccc(F)cc2)ccc1O[C@H]1O[C@H](CO)[C@@H](O)[C@H](O)[C@]1(C)O` [Compound 74], for which the IC50 stood at 0.18 ± 0.04 µM.

In the case of `Cc1cc(-c2ccc(F)cc2F)ccc1O[C@H]1O[C@H](CO)[C@@H](O)[C@H](O)[C@]1(C)O` [Compound 75], the IC50 worked out at 0.038 ± 0.018 µM.

On to `Cc1cc(-c2cc(F)cc(F)c2)ccc1O[C@H]1O[C@H](CO)[C@@H](O)[C@H](O)[C@]1(C)O` [Compound 76], for which the IC50 worked out at 0.024 ± 0.003 µM.

`Cc1cc(-c2cc(Cl)ccc2F)ccc1O[C@H]1O[C@H](CO)[C@@H](O)[C@H](O)[C@]1(C)O` [Compound 77]: the IC50 turned out to be 0.15 µM.

Consider `Cc1cc(-c2cc(F)cc(Cl)c2)ccc1O[C@H]1O[C@H](CO)[C@@H](O)[C@H](O)[C@]1(C)O` [Compound 78], for which the concentration for half-maximal inhibition (IC50) was 0.094 ± 0.006 µM.

With `COc1ccc(C#N)cc1-c1ccc(O[C@H]2O[C@H](CO)[C@@H](O)[C@H](O)[C@]2(C)O)c(C)c1` [Compound 79], the IC50 was found to be 0.02 ± 0.005 µM.

With `COc1cc(Cl)cc(-c2ccc(O[C@H]3O[C@H](CO)[C@@H](O)[C@H](O)[C@]3(C)O)c(C)c2)c1` [Compound 80], the IC50 was determined as 0.055 ± 0.015 µM.

Turning to `COc1cc(Cl)ccc1-c1ccc(O[C@H]2O[C@H](CO)[C@@H](O)[C@H](O)[C@]2(C)O)c(C)c1` [Compound 81], the IC50 was 0.185 ± 0.015 µM.

With `Cc1cc(-c2ccc(Cl)c(Cl)c2)ccc1O[C@H]1O[C@H](CO)[C@@H](O)[C@H](O)[C@]1(C)O` [Compound 82], the 50% inhibitory concentration (IC50) was 0.11 ± 0.031 µM.

`Cc1cc(-c2cccc(C(=O)N(C)C)c2)ccc1O[C@H]1O[C@H](CO)[C@@H](O)[C@H](O)[C@]1(C)O` [Compound 83]: the IC50 turned out to be 0.019 ± 0.006 µM.

As for `Cc1cc(-c2cccc(S(N)(=O)=O)c2)ccc1O[C@H]1O[C@H](CO)[C@@H](O)[C@H](O)[C@]1(C)O` [Compound 84], the IC50 was 0.01 ± 0.002 µM.

`Cc1cc(-c2ccc(F)c(C(=O)N3CCCC3)c2)ccc1O[C@H]1O[C@H](CO)[C@@H](O)[C@H](O)[C@]1(C)O` [Compound 85]: the IC50 turned out to be 0.03 ± 0.008 µM.

As to `Cc1cc(-c2cccc(S(=O)(=O)NC(C)(C)C)c2)ccc1O[C@H]1O[C@H](CO)[C@@H](O)[C@H](O)[C@]1(C)O` [Compound 86], the IC50 is 0.026 ± 0.008 µM.

`Cc1cc(-c2ccc(O[C@H]3O[C@H](CO)[C@@H](O)[C@H](O)[C@]3(C)O)c(C)c2)ccc1F` [Compound 87]: the IC50 was found to be 0.087 ± 0.033 µM.

Turning to `Cc1cc(-c2ccc(F)c(F)c2)ccc1O[C@H]1O[C@H](CO)[C@@H](O)[C@H](O)[C@]1(C)O` [Compound 88], the IC50 was determined as 2.95 ± 0.15 µM.

Take `Cc1cc(-c2ccc3cc[nH]c3c2)ccc1O[C@H]1O[C@H](CO)[C@@H](O)[C@H](O)[C@]1(C)O` [Compound 89]: the IC50 is 0.455 ± 0.095 µM.

Take `COc1c(F)cccc1-c1ccc(O[C@H]2O[C@H](CO)[C@@H](O)[C@H](O)[C@]2(C)O)c(C)c1` [Compound 90]: the IC50 turned out to be 0.083 ± 0.003 µM.

In the case of `COc1cc(F)ccc1-c1ccc(O[C@H]2O[C@H](CO)[C@@H](O)[C@H](O)[C@]2(C)O)c(C)c1` [Compound 91], the half-inhibitory concentration (IC50) was determined as 0.092 ± 0.027 µM.

Regarding `Cc1cc(-c2ccc(F)c(Cl)c2)ccc1O[C@H]1O[C@H](CO)[C@@H](O)[C@H](O)[C@]1(C)O` [Compound 92], the half-inhibitory concentration (IC50) is 0.082 ± 0.015 µM.

These data come from patent US9890176B2, “Mannose derivatives for treating bacterial infections” (Vertex Pharmaceuticals Incorporated, priority 2013, dated 2018).
